According to patent US20240293392A1, “INHIBITOR COMPOUNDS” (NeoPhore Limited, priority 2021, published 2024):
Counter-ions that a name gives are not always drawn.

Experiments:
[1] = target: T1, recombinant N-terminal MLH1 (residues 15-340) (Homo sapiens, UniProt P40692); experiment: Fluorescence Polarisation Assay for MLH1; format: binding; settings: fluorescence polarisation probe displacement; 100 nM N-terminal MLH1, 5 nM probe compound
T1 construct: recombinant N-terminal MLH1 (residues 15-340)
T1 sequence (P40692 15-340): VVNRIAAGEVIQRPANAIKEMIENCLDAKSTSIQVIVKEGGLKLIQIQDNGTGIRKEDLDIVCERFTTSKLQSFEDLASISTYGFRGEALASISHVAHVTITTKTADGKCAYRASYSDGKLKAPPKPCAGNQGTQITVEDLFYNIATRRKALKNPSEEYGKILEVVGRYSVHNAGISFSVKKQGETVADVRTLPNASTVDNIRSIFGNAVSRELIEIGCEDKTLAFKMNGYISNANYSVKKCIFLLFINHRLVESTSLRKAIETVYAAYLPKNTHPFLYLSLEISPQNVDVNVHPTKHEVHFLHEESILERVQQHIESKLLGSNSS
Experimental: Fluorescence Polarisation Assay for MLH1
Test compounds, as 10 mM DMSO stocks, were dispensed into a 384-well Low Flange Black Flat Bottom Polystyrene Non-binding Surface plate (Corning®, item number 3575) using a Labcyte Echo acoustic liquid handler. Test compounds were added to wells in columns 1-22 whilst DMSO was added to wells in columns 23 and 24 in order to normalise the plate. 20 μL of a 2× solution (200 nM) of recombinant N-terminal MLH1 (residues 15-340) in assay buffer (25 mM HEPES, pH 7.5, 250 mM NaCl, 10 mM MgCl2, 0.01% Triton X-100, 5 mM dithiothreitol) was added to all wells in columns 1-23 and 20 μL assay buffer was added to all wells in column 24 using an E1-ClipTip pipette (ThermoFisher). Plates were centrifuged for 1 minute at 250×g and were incubated at room temperature for 30 minutes prior to the addition of 20 μL of 2× (10 nM) 5-((5-(4-((2-(2,4-dihydroxy-5-isopropylbenzoyl)isoindolin-5-yl)methyl)piperazin-1-yl)pentyl)carbamoyl)-2-(6-(dimethylamino)-3-(dimethyliminio)-3H-xanthen-9-yl)benzoate in assay buffer (prepared from a 1 mM DMSO stock) with an E1-ClipTip pipette (ThermoFisher). The final concentration of N-terminal MLH1 was 100 nM and the final concentration of the probe compound was 5 nM. Compound plates were centrifuged for 1 minute at 250×g for 1 minute and immediately read on a PheraStar FSX (fitted with 384-well aperture spoon and 590 675 675 FP optic module). The gain and focus were adjusted before each plate was read so that the polarisation of a no enzyme control (column 24) was equal to 35 mP. Data were normalised against the no inhibitor controls (column 23) and no enzyme controls (column 24).

[2] = target: T2, recombinant N-terminal PMS2 (residues 1-365) (Homo sapiens, UniProt P54278); experiment: Fluorescence Polarisation Assay for PMS2; format: binding; settings: fluorescence polarisation probe displacement; 10 nM N-terminal PMS2, 5 nM probe compound; read-out: PMS2 IC50
T2 construct: recombinant N-terminal PMS2 (residues 1-365)
T2 sequence (P54278 1-365): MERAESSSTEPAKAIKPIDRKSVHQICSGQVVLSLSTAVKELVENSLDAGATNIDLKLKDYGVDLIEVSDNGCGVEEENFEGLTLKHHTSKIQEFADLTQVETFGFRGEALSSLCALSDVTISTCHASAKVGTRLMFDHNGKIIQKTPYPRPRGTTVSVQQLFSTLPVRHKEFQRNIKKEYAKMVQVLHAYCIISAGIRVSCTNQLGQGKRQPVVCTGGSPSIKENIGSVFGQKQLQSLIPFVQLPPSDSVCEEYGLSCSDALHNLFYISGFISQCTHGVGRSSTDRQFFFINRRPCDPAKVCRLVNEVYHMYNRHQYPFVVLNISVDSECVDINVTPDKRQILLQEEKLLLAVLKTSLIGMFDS
Experimental: Fluorescence Polarisation Assay for PMS2
For single point screening, test compounds were added to wells in columns 1-22 whilst DMSO was added to wells in columns 23 and 24 in order to normalise the plate. For potency determination, serial dilutions of test compounds were added to wells in columns 3-22 and DMSO volume was normalised across the plate.
20 μL assay buffer was added to all wells in columns 1 and 24 (column 24 only for single point screening) using a MultiDrop Combi (ThermoFisher). Plates were centrifuged for 1 minute at 250×g and were incubated at room temperature for 30 minutes prior to the addition of 20 μL of 2× (20 nM) of 5-((5-(4-((2-(2,4-dihydroxy-5-isopropylbenzoyl)isoindolin-5-yl)methyl)piperazin-1-yl)pentyl)carbamoyl)-2-(6-(dimethylamino)-3-(dimethyliminio)-3H-xanthen-9-yl)benzoate (referred to hereinafter as “probe compound”) in assay buffer (prepared from a 100 μM DMSO stock) with a MultiDrop Combi (ThermoFisher). The final concentration of N-terminal PMS2 was 10 nM and the final concentration of probe compound was 5 nM.
Compound plates were centrifuged for 1 minute at 250×g for 1 minute and were incubated at room temperature for 1 hour before being read on a PheraStar FSX (fitted with 384-well aperture spoon and 540 590 590 FP optic module). The gain and focus were adjusted before each plate was read so that the polarisation of a no enzyme control (column 24) was equal to 35 mP. Data were normalised against the no inhibitor controls (column 23) and no enzyme controls (column 24).

Row | Compound | IC50 [1] | IC50 [2]
1 | CN1CCC(Nc2cccc3c2CN(C(=O)c2c(O)cc(O)cc2OCc2ccccc2)CC3)CC1=O (centres unmarked) [Example 114, 4-((2-(2-(Benzyloxy)-4,6-dihydroxybenzoyl)-1,2,3,4-tetrahydroisoquinolin-8-yl)amino)-1-methylpiperidin-2-one] | 1000 to 10000 nM | > 10000 nM
2 | O=C(c1c(O)cc(O)cc1OCc1ccccc1)N1Cc2ccccc2C1CO (centres unmarked) [Example 13, (2-(Benzyloxy)-4,6-dihydroxyphenyl)(1-(hydroxymethyl)isoindolin-2-yl)methanone] | < 1000 nM | 1000 to 10000 nM
3 | Cc1cccc(COc2cc(O)cc(O)c2C(=O)N2CCc3cccc(N[C@H]4CCOC4)c3C2)c1 [Example 124, (S)-(2,4-Dihydroxy-6-((3-methylbenzyl)oxy)phenyl)(8-((tetrahydrofuran-3-yl)amino)-3,4-dihydroisoquinolin-2(1H)-yl)methanone] | < 1000 nM | < 1000 nM
4 | O=C(Nc1cccc2c1CN(C(=O)c1c(O)cc(O)cc1OCc1ccccc1)CC2)C1CCOC1 (centres unmarked) [Example 102, N-(2-(2-(Benzyloxy)-4,6-dihydroxybenzoyl)-1,2,3,4-tetrahydroisoquinolin-8-yl) tetrahydrofuran-3-carboxamide] | > 10000 nM | > 10000 nM
5 | CN(c1cccc2c1CN(C(=O)c1c(O)cc(O)cc1OCc1ccccc1)CC2)C1CCOC1 (centres unmarked) [Example 143, (2-(Benzyloxy)-4,6-dihydroxyphenyl)(8-(methyl(tetrahydrofuran-3-yl)amino)-3,4-dihydroisoquinolin-2(1H)-yl)methanone] | > 10000 nM | > 10000 nM
6 | CN1C[C@@H](Nc2cccc3c2CN(C(=O)c2c(O)cc(O)cc2OCc2ccccn2)CC3)CC1=O [Example 58, (S)-4-((2-(2,4-Dihydroxy-6-(pyridin-2-ylmethoxy)benzoyl)-1,2,3,4-tetrahydroisoquinolin-8-yl)amino)-1-methylpyrrolidin-2-one] | < 1000 nM | > 10000 nM
7 | O=C(c1c(O)cc(O)cc1OCc1ccccc1)N1Cc2cccc(Nc3cn[nH]c3)c2C1 [Example 34, (4-((1H-Pyrazol-4-yl)amino)isoindolin-2-yl)(2-(benzyloxy)-4,6-dihydroxyphenyl)methanone] | < 1000 nM | 1000 to 10000 nM
8 | O=C(c1c(O)cc(O)cc1OCC1CCOCC1)N1Cc2cccc(NC3CCOC3)c2C1 (centres unmarked) [Example 98, (2,4-Dihydroxy-6-((tetrahydro-2H-pyran-4-yl)methoxy)phenyl)(4-((tetrahydrofuran-3-yl)amino)isoindolin-2-yl)methanone] | 1000 to 10000 nM | > 10000 nM
9 | COCCNc1cccc2c1CN(C(=O)c1c(O)cc(O)cc1OCc1ccccc1)CC2 [Example 44, (2-(Benzyloxy)-4,6-dihydroxyphenyl)(8-((2-methoxyethyl)amino)-3,4-dihydroisoquinolin-2(1H)-yl)methanone] | < 1000 nM | 1000 to 10000 nM
10 | CN1C[C@@H](Nc2cccc3c2CN(C(=O)c2c(O)cc(O)cc2OCc2ccccc2)C3)CC1=O [Example 137, (S)-4-((2-(2-(Benzyloxy)-4,6-dihydroxybenzoyl)isoindolin-4-yl)amino)-1-methylpyrrolidin-2-one] | < 1000 nM | < 1000 nM
11 | O=C(c1c(O)cc(O)cc1OCc1ccc(F)cc1)N1Cc2cccc(NC3CCOC3)c2C1 (centres unmarked) [Example 37, (2-((4-Fluorobenzyl)oxy)-4,6-dihydroxyphenyl)(4-((tetrahydrofuran-3-yl)amino)isoindolin-2-yl)methanone] | < 1000 nM | 1000 to 10000 nM
12 | Cc1c[nH]c(=O)cc1Nc1cccc2c1CN(C(=O)c1c(O)cc(O)cc1OCc1ccccc1)C2 [Example 24, 4-((2-(2-(benzyloxy)-4,6-dihydroxybenzoyl)isoindolin-4-yl)amino)-5-methylpyridin-2(1H)-one] | 1000 to 10000 nM | 1000 to 10000 nM
13 | CN1C[C@H](Nc2cccc3c2CN(C(=O)c2c(O)cc(O)cc2OCc2ccccc2)C3)CC1=O [Example 136, (R)-4-((2-(2-(Benzyloxy)-4,6-dihydroxybenzoyl)isoindolin-4-yl)amino)-1-methylpyrrolidin-2-one] | < 1000 nM | < 1000 nM
14 | COc1ccc2c(c1)CCN(C(=O)c1c(O)cc(O)cc1OCc1ccccc1)C2 [Example 48, (2-Benzyloxy-4,6-dihydroxy-phenyl)-(6-methoxy-3,4-dihydro-1H-isoquinolin-2-yl)methanone] | 1000 to 10000 nM | 1000 to 10000 nM
15 | CC1(NCc2cccc3c2CN(C(=O)c2c(O)cc(O)cc2OCc2ccccc2)C3)COC1 [Example 82, (2-(Benzyloxy)-4,6-dihydroxyphenyl)(4-(((3-methyloxetan-3-yl)amino)methyl)isoindolin-2-yl)methanone] | < 1000 nM | 1000 to 10000 nM
16 | NCc1cccc2c1CN(C(=O)c1c(O)cc(O)cc1OCc1ccccc1)C2 [Example 83, (4-(Aminomethyl)isoindolin-2-yl)(2-(benzyloxy)-4,6-dihydroxyphenyl)methanone hydrochloride] | < 1000 nM | 1000 to 10000 nM
17 | O=C(c1c(O)cc(O)cc1OCc1ccccc1)N1Cc2cccc(NC3CCOCC3)c2C1 [Example 15, (2-(Benzyloxy)-4,6-dihydroxyphenyl)(4-((tetrahydro-2H-pyran-4-yl)amino)isoindolin-2-yl)methanone] | < 1000 nM | 1000 to 10000 nM
18 | CC(=O)N1CCC[C@H](Nc2cccc3c2CN(C(=O)c2c(O)cc(O)cc2OCc2ccccc2)CC3)C1 [Example 67, (S)-1-(3-((2-(2-(Benzyloxy)-4,6-dihydroxybenzoyl)-1,2,3,4-tetrahydroisoquinolin-8-yl)amino)piperidin-1-yl)ethan-1-one] | 1000 to 10000 nM | > 10000 nM
19 | O=C(c1c(O)cc(O)cc1OCc1ccccc1)N1CCc2cccc(NC3CCCC3)c2C1 [Example 76, (2-(Benzyloxy)-4,6-dihydroxyphenyl)(8-(cyclopentylamino)-3,4-dihydroisoquinolin-2(1H)-yl)methanone] | 1000 to 10000 nM | > 10000 nM
20 | O=C(c1c(O)cc(O)cc1OCc1cccnc1)N1Cc2cccc(NC3CCOC3)c2C1 (centres unmarked) [Example 96, (2,4-dihydroxy-6-(pyridin-3-ylmethoxy)phenyl)(4-((tetrahydrofuran-3-yl)amino)isoindolin-2-yl)methanone] | < 1000 nM | > 10000 nM
21 | O=C(c1c(O)cc(O)cc1OCc1ccccc1)N1Cc2cccc(CN3CCOCC3)c2C1 [Example 10, (2-(Benzyloxy)-4,6-dihydroxyphenyl)(4-(morpholinomethyl)isoindolin-2-yl)methanone] | 1000 to 10000 nM | 1000 to 10000 nM
22 | CN(C)C(=O)c1ccc2c(c1)CN(C(=O)c1c(O)cc(O)cc1OCc1ccccc1)C2 [Example 87, 2-(2-(Benzyloxy)-4,6-dihydroxybenzoyl)-N,N-dimethylisoindoline-5-carboxamide] | < 1000 nM | < 1000 nM
